In test [1] the target is Cathepsin Z (Homo sapiens) (UniProt Q9UBR2). The test can be described thus: Inhibition of human recombinant cathepsin X.
For test [2] the target is unchanged. The test can be described thus: Inhibition of human recombinant cathepsin X. The source holds these as a separate data set.

Among the data in BindingDB's records for doi:10.1016/j.bmcl.2006.12.014 (The Genomics Institute of The Novartis Research Foundation, 2007) are IC50 values, retold here.

pIC50: −log10 of the molar value.

Cathepsin Z (Homo sapiens), sequence (Q9UBR2 whole entry, looked up): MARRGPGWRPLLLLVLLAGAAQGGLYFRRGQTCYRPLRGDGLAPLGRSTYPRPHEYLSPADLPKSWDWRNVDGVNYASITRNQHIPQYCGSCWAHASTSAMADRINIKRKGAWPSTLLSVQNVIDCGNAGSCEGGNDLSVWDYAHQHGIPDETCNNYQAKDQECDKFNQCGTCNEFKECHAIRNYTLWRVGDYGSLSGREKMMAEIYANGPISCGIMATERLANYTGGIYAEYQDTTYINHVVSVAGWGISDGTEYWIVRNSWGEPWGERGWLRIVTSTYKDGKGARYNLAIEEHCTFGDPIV

The pIC50 is the negative decadic logarithm of the IC50, by convention in mol/L. For `O=C1O[C@@H]2CN1CC[C@@H]2OCc1ccccc1` [(1R,2S)-2-(benzyloxy)-7-oxa-5-aza-bicyclo[3.2.1]octan-6-one], in test [1], the negative logarithm of the IC50 (pIC50) is 6.26.

For `O=C1O[C@H]2CN1CC[C@@H]2Br` [(1S,2S)-2-bromo-7-oxa-5-aza-bicyclo[3.2.1]octan-6-one], the pIC50 in test [2] is under 5.00. As for `Cc1cccc(O[C@H]2CCN3C[C@@H]2OC3=O)c1C` (racemic) [rac-trans4-(2,3-dimethylphenoxy)-6-oxa-1-aza-bicyclo[3.2.1]octan-7-one], the pIC50 in test [2] was 6.26. For `O=C1O[C@@H]2CN1CC[C@@H]2Oc1ccccc1` [(1R,2S)-2-phenoxy-7-oxa-5-aza-bicyclo[3.2.1]octan-6-one], the negative logarithm of the IC50 (pIC50) in test [1] was 6.49. Take `Cc1cccc(O[C@H]2CCN3C[C@H]2OC3=O)c1C` (relative stereo) [cis-4-(2,3-dimethylphenoxy)-6-oxa-1-aza-bicyclo[3.2.1]octan-7-one]: the pIC50 in test [2] was 6.71.

As for `S=C1O[C@@H]2CN1CC[C@@H]2Oc1ccccc1` [(1R,2S)-2-phenoxy-7-oxa-5-aza-bicyclo[3.2.1]octane-6-thione], the pIC50 in test [1] is 5.15. With `CC(C)CO[C@H]1CCN2C[C@H]1OC2=O` [(1R,2S)-2-isobutoxy-7-oxa-5-aza-bicyclo[3.2.1]octan-6-one], in test [1], the pIC50 is 5.96.
